Data as given in PubChem BioAssay (NCI).
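Step 1: Grow cells in 96-well plates. Step 2: Expose to compound for 48 hours at 5 concentrations. Step 3: Interpolate endpoints linearly; if unreached, use highest concentration. The concentration for 50% growth inhibition is given as GI50. At the TGI there is no net growth.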

Assays:
Assay in all cases: NCI-60 cell line screen, 48 h
[1] = test system: K-562 leukemia
[2] = test system: OVCAR-8 ovarian
[3] = test system: SK-OV-3 ovarian
[4] = test system: KM12 colon
[5] = test system: HCT-15 colon
[6] = test system: SF-295 CNS
[7] = test system: UACC-257 melanoma
[8] = test system: U251 CNS
[9] = test system: HOP-92 NSCLC
[10] = test system: CCRF-CEM leukemia

In the case of `COc1ccc(Cl)cc1Nc1nc(C(F)(F)F)ccc1C(=O)N/N=C/c1cc(OC)c(OC)c(OC)c1`, the GI50 [1] is reported as 2.42 µM, the TGI [1] is reported as greater than 100 µM and the GI50 [2] is reported as 1.59 µM. For the same compound, the TGI [2] was 4.89 µM, the GI50 [3] was 3.04 µM and the TGI [3] was 15 µM. It also gave a GI50 [4] of 3.55 µM, a TGI [4] of 20.8 µM and a GI50 [5] of 1.23 µM. For the same compound, the TGI [5] was 11.9 µM, the GI50 [6] was 1.09 µM and the TGI [6] was 2.92 µM. The GI50 [7] was 1.65 µM, the TGI [7] was 3.96 µM and the GI50 [8] was 1.75 µM. For the same compound, the TGI [8] was 15.1 µM, the GI50 [9] was 2.09 µM and the TGI [9] was 7.56 µM. For the same compound, the GI50 [10] was 1.27 µM and the TGI [10] was greater than 100 µM.
With `COc1ccc(CN2c3ccccc3CCc3ccccc32)cc1F` the GI50 [1] was 0.402 µM, the TGI [1] was greater than 100 µM and the GI50 [2] was 0.88 µM. It also gave a TGI [2] greater than 100 µM, a GI50 [3] of 0.471 µM and a TGI [3] greater than 100 µM. The GI50 [4] was 0.387 µM, the TGI [4] was greater than 100 µM and the GI50 [5] was 0.428 µM. The TGI [5] was greater than 100 µM, the GI50 [6] was 0.333 µM and the TGI [6] was greater than 100 µM. For the same compound, the GI50 [7] was greater than 100 µM, the TGI [7] was greater than 100 µM and the GI50 [8] was 0.496 µM. For the same compound, the TGI [8] was greater than 100 µM, the GI50 [9] was 0.587 µM and the TGI [9] was 48 µM. For the same compound, the GI50 [10] was 0.515 µM and the TGI [10] was greater than 100 µM.
Work on `C[C@]12CC[C@@H]3c4ccc(O)cc4C(O)C[C@H]3[C@@H]1CCC2=O` (some centres undefined) yielded a GI50 [1] greater than 100 µM, a TGI [1] greater than 100 µM and a GI50 [2] greater than 100 µM. It also gave a TGI [2] greater than 100 µM, a GI50 [3] greater than 100 µM and a TGI [3] greater than 100 µM. The GI50 [4] was greater than 100 µM, the TGI [4] was greater than 100 µM and the GI50 [5] was greater than 100 µM. The TGI [5] was greater than 100 µM, the GI50 [6] was greater than 100 µM and the TGI [6] was greater than 100 µM. It also gave a GI50 [7] greater than 100 µM, a TGI [7] greater than 100 µM and a GI50 [8] greater than 100 µM. It also gave a TGI [8] greater than 100 µM, a GI50 [9] of 53.8 µM and a TGI [9] greater than 100 µM. The GI50 [10] was greater than 100 µM and the TGI [10] was greater than 100 µM.
`O=C(OC[C@H]1O[C@@H](OC(=O)c2cc(O)c(O)c(O)c2)[C@H](OC(=O)c2cc(O)c(O)c(O)c2)[C@@H](OC(=O)c2cc(O)c(O)c(O)c2)[C@@H]1OC(=O)c1cc(O)c(O)c(O)c1)c1cc(O)c(O)c(O)c1` was tested, and the TGI [1] was greater than 100 µM, the TGI [2] was 24.9 µM and the TGI [3] was greater than 100 µM. It also gave a TGI [4] of 6.65 µM, a TGI [5] greater than 100 µM and a TGI [6] of 20.3 µM. The TGI [7] was 65 µM, the TGI [8] was 54.3 µM and the TGI [9] was 37.4 µM. It also gave a TGI [10] greater than 100 µM.
Work on `Cc1c2ccc(N(C)c3ccnc(Nc4cccc(S(N)(=O)=O)c4)n3)cc2nn1C` yielded a GI50 [1] of 5.54 µM, a TGI [1] greater than 25 µM and a GI50 [2] of 9.91 µM. It also gave a TGI [2] greater than 25 µM, a GI50 [3] of 7.03 µM and a TGI [3] of 20.6 µM. For the same compound, the GI50 [4] was 8.12 µM, the TGI [4] was greater than 25 µM and the GI50 [5] was 9.34 µM. For the same compound, the TGI [5] was greater than 25 µM, the GI50 [6] was 6.81 µM and the TGI [6] was greater than 19.9 µM. It also gave a GI50 [7] of 12.2 µM, a TGI [7] greater than 25 µM and a GI50 [8] of 10.9 µM. The TGI [8] was greater than 25 µM, the GI50 [9] was 5.41 µM and the TGI [9] was 17.9 µM. It also gave a GI50 [10] of 9.21 µM and a TGI [10] greater than 25 µM.
In the case of `O=[N+]([O-])c1nccn1COCCBr`, the TGI [1] is reported as greater than 100 µM, the TGI [2] is reported as greater than 100 µM and the TGI [3] is reported as greater than 100 µM. It also gave a TGI [4] greater than 100 µM, a TGI [5] greater than 100 µM and a TGI [6] greater than 100 µM. It also gave a TGI [7] greater than 100 µM, a TGI [8] greater than 100 µM and a TGI [9] greater than 100 µM. It also gave a TGI [10] greater than 100 µM.
`C=C(C=O)CCCC(C)[C@@H]1CCC23CC12CCC1[C@@]2(C)CCC(OC(C)=O)C(C)(C)C2CC(OC2OC(COC(C)=O)C(O)C(O)C2O)[C@]13C` (some centres undefined) gave a TGI [1] of 6.78 µM, a TGI [2] of 11.1 µM and a TGI [3] of 12 µM. For the same compound, the TGI [4] was 9.53 µM, the TGI [5] was 7.5 µM and the TGI [6] was 11.6 µM. The TGI [7] was 11.6 µM, the TGI [8] was 8.56 µM and the TGI [9] was 12.4 µM. It also gave a TGI [10] of 5 µM.
For `Cn1cc(CNCC2CCN(c3ncc(C(=O)NO)cn3)CC2)c2ccccc21`, the GI50 [1] was less than 0.012 µM, the TGI [1] was greater than 46.9 µM and the GI50 [2] was less than 0.01 µM. For the same compound, the GI50 [3] was 0.0199 µM, the TGI [3] was 0.361 µM and the GI50 [4] was 0.0215 µM. The TGI [4] was 0.589 µM, the GI50 [5] was 0.144 µM and the TGI [5] was 15.8 µM. For the same compound, the GI50 [6] was 0.0169 µM, the TGI [6] was 0.188 µM and the GI50 [7] was 0.0119 µM. For the same compound, the TGI [7] was 0.363 µM, the GI50 [8] was 0.0133 µM and the TGI [8] was 0.128 µM. It also gave a GI50 [9] of less than 0.0107 µM, a TGI [9] of 0.0399 µM and a GI50 [10] of less than 0.0116 µM. For the same compound, the TGI [10] was 49.3 µM.
Compound `Cc1ccc(NC(=O)Cn2c(Br)nc3c2c(=O)n(C)c(=O)n3C)cc1` has a GI50 [1] of 18.5 µM, a TGI [1] of 74.5 µM and a GI50 [2] of 4.89 µM. It also gave a TGI [2] of 21.6 µM, a GI50 [3] of 2.15 µM and a TGI [3] of 4.52 µM. It also gave a GI50 [4] of 13.6 µM, a TGI [4] of 29.9 µM and a GI50 [5] of 12.2 µM. It also gave a TGI [5] of 29.3 µM, a GI50 [6] of 9.84 µM and a TGI [6] of 21.8 µM. It also gave a GI50 [7] of 13.9 µM, a TGI [7] of 28.8 µM and a GI50 [8] of 2.26 µM. The TGI [8] was 5.75 µM, the GI50 [9] was 1.9 µM and the TGI [9] was 5.29 µM. The GI50 [10] was 17.3 µM and the TGI [10] was 65.8 µM.
Compound `C=C=C(C(=O)OC)S(=O)c1ccc([N+](=O)[O-])cc1[N+](=O)[O-]` (centres undefined) has a TGI [1] of 46.3 µM, a TGI [2] of 55.1 µM and a TGI [3] greater than 100 µM. It also gave a TGI [4] greater than 72 µM, a TGI [5] of 45.3 µM and a TGI [6] greater than 100 µM. For the same compound, the TGI [7] was greater than 79.9 µM, the TGI [8] was 62.7 µM and the TGI [9] was 66.7 µM. The TGI [10] was 32.5 µM.
`Nc1ccc(S(=O)(=O)NCc2nccs2)cc1` gave a TGI [1] of 82.8 µM, a TGI [2] greater than 100 µM and a TGI [3] greater than 100 µM. The TGI [4] was 45 µM, the TGI [5] was 83.8 µM and the TGI [6] was greater than 100 µM. For the same compound, the TGI [7] was 44.5 µM, the TGI [8] was 47.5 µM and the TGI [9] was 41.4 µM. The TGI [10] was 38.2 µM.
For `O=Cc1ccc(-c2cccs2)s1`, the TGI [1] was 46.4 µM, the TGI [2] was greater than 100 µM and the TGI [3] was greater than 100 µM. It also gave a TGI [4] greater than 100 µM, a TGI [5] greater than 100 µM and a TGI [6] greater than 100 µM. It also gave a TGI [7] of 15.1 µM, a TGI [8] greater than 93.8 µM and a TGI [9] greater than 68.1 µM. For the same compound, the TGI [10] was greater than 100 µM.
In the case of `O=c1[nH]c(=O)n(C2OC3COC2C3O)cc1F` (centres undefined), the TGI [1] is reported as greater than 100 µM, the TGI [2] is reported as greater than 100 µM and the TGI [3] is reported as greater than 100 µM. For the same compound, the TGI [4] was greater than 100 µM, the TGI [5] was greater than 100 µM and the TGI [6] was greater than 100 µM. The TGI [7] was greater than 100 µM, the TGI [8] was greater than 100 µM and the TGI [9] was greater than 100 µM. The TGI [10] was greater than 100 µM.
`CCOc1c(Cl)cc(CNC(C)C(O)c2ccccc2)cc1OC` (centres undefined) gave a GI50 [1] of 20.9 µM, a TGI [1] of 68.9 µM and a GI50 [2] of 19.8 µM. The TGI [2] was 48 µM, the GI50 [3] was 41.1 µM and the TGI [3] was greater than 100 µM. It also gave a GI50 [4] of 22.5 µM, a TGI [4] of 49.2 µM and a GI50 [5] of 21.9 µM. It also gave a TGI [5] of 67.4 µM, a GI50 [6] of 16.4 µM and a TGI [6] of 34.6 µM. For the same compound, the GI50 [7] was 19.1 µM, the TGI [7] was 43.1 µM and the GI50 [8] was 19.5 µM. For the same compound, the TGI [8] was 46.1 µM, the GI50 [9] was 12.9 µM and the TGI [9] was 48.5 µM. It also gave a GI50 [10] of 35.6 µM and a TGI [10] greater than 100 µM.
Work on `COc1cc(Br)c(C=Nc2cccc3ccc(OS(=O)(=O)c4cccc([N+](=O)[O-])c4)cc23)cc1OC` yielded a TGI [1] greater than 100 µM, a TGI [2] of 86.5 µM and a TGI [3] greater than 100 µM. The TGI [4] was greater than 100 µM, the TGI [5] was greater than 100 µM and the TGI [6] was 60.4 µM. The TGI [7] was greater than 100 µM, the TGI [8] was greater than 100 µM and the TGI [9] was 35.3 µM. The TGI [10] was greater than 100 µM.
Work on `Nc1nc(CCC(=O)Nc2cccc(C(F)(F)F)c2)cc(-c2ccc3ccccc3c2)n1` yielded a TGI [1] greater than 100 µM, a TGI [2] greater than 100 µM and a TGI [3] greater than 100 µM. The TGI [4] was greater than 100 µM, the TGI [5] was greater than 100 µM and the TGI [6] was greater than 100 µM. The TGI [7] was greater than 100 µM, the TGI [8] was greater than 100 µM and the TGI [9] was greater than 100 µM. It also gave a TGI [10] greater than 100 µM.
